Results: US6635629B2, “3-nitrogen-6,7-dioxygen steroids and uses related thereto” (Inflazyme Pharmaceuticals Ltd., priority 2000, dated 2003)
Values joined by “and” are separate entries in the source; they are usually repeats but may differ in a detail not shown here. Identical values can stand only once. Like-named read-outs stand apart in the source and are kept apart here.

What was measured:
[1] = tested on: sensitized Brown Norway rats; test: Ovalbumin-induced accumulation of inflammatory cells in lung lavage fluid of sensitized Brown Norway rats; format: in vivo, rat; details: p.o.
Description: The ability of a compound to inhibit the allergen-induced accumulation of inflammatory cells such as eosinophils and neutrophils in the lavage fluid obtained from sensitized animals is indicative of that compound's anti-asthma activity. […] The test is conducted as follows.
Male Brown Norway rats are sensitized to ovalbumin by single intraperitoneal injection of 1 mg ovalbumin adsorbed to 100 mg A(OH)3 (alum) in 1 ml sterile saline (saline control rats receive only sterile saline) on day 1, and allowed to sensitize until day 21. […] Rats are challenged with 0.5% ovalbumin in saline generated using a Devillbis nebulizer for 60 min on day 21.
Forty-eight hrs after challenge, animals are sacrificed with an overdose of intraperitoneally-delivered sodium pentobarbitol and the lungs are lavaged with cold 2×7 ml phosphate buffered saline. The recovered lavage fluid is placed on ice. The bronchoalveolar lavage fluid is centrifuged and the supernatant removed. The pellet is resuspended in phosphate buffered saline at 4° C. Cytospins are prepared and stained for differentiation and enumeration of cell types.
Test compound was administered in 300 μl corn oil (Tables 7 and 8) or water (Table 9), which were used as vehicles. Control animals received 300 μl corn oil or water alone, i.e., no drug. […] A negative value in Table 7, 8, or 9 indicates an exacerbation of the effect over the control animal.

[2] = Metabolic stability in human liver S9 fractions; format: in vitro ADME; details: 10 μM
From the text: The therapeutic effectiveness of a test compound can be often directly related to its metabolic stability in vivo. The majority of known, marketed drugs are metabolized by a group of enzymes known as P450 enzymes. The S9 fraction of human liver contains all the P450 enzymes and also cytoplasmic enzymes that may be involved in the metabolism of new chemical entities. Metabolism in vitro using human S9 fractions is a standard assay to evaluate relative metabolic stability of new compounds. The test is performed as follows.
Reagents are thawed on ice and combined to make up a Master Mix as follows: Potassium phosphate (100 mM, pH 7), G6P (0.25 mM), G6PDH (2 U/ml), NADPH (1 mM), UDP (0.25 mM), APPS (0.25 mM), and S9 fraction (2 mg/ml). A volume of 498 μl of the Master mix is dispensed into each microcentrifuge tube. A volume of 2 μl of 2.5 mM test compound (final concentration of 10 μM) is dispensed into the center of the lid of the appropriate tube, and the lids gently closed to prevent mixing. Synchronous combination of test compound and master mix is achieved by simultaneous ten times inversion of the tubes, which are then incubated at 37° C. and shaken at 150 rpm for the appropriate incubation times. While incubation is in progress, all 0 time samples are mixed individually by three times inversion followed by the immediate addition of 500 μl ice cold acetonitrile with three times inversion to stop the reaction. Immediately after each 15 minutes and 30 minutes incubation is complete, ice cold acetonitrile is added to each tube and the tubes mixed by three times inversion. All sample tubes are incubated at −80° C. for a minimum of 15 minutes, thawed and remixed by inversion. Aliquots of 650 μl are transferred to Chromatographic Specialties micro-spin filter system tubes (0.2 μm nylon membrane, C618505) and centrifuged at 13,000 rpm for 48 seconds. The sample filtrates are stored at −80° C.
Sample filtrates are analyzed on LCMS, and percent remaining after 15 and 30 minute incubation is calculated relative to the 0 minute incubation.
The metabolic stability of various compounds are summarized in Table 10 as the percent remaining after 15 or 30 minutes incubation with human liver S9 fractions.

[3] = tested on: rat mast cell line (RBL-2H3); test: Antigen-induced release of hexosaminidase from a rat mast cell line (RBL-2H3); format: cell-based; details: tested at 0.3, 3, 10 and 30 μM, read-out: Hex IC50
Description: The anti-allergic effects of a compound of the present invention was evaluated by measuring its effect on antigen-induced secretion of hexosaminidase from a passively sensitized rat mast cell line. The ability of a test compound to inhibit the release of mast cell granule contents, e.g., histamine and hexosaminidase, is indicative of the anti-allergy and/or anti-asthma activity of the compound. Hexosaminidase is released from the mast cell granule along with histamine and other mediators during antigen challenge. The test is performed as follows.
RBL-2H3 cells are grown in culture and passively sensitized for 1 hour at 37° C. to dinitrophenol (DNP) using anti-human-DNP (IgE). Cells are incubated with test compound for 30 minutes at 37° C. and stimulated with 0.5 μg/ml DNP-HSA (antigen) for 30 minutes. Aliquots of the supernatant are removed and used to measure the amount of hexosaminidase released during challenge with the antigen. […] The effect of each test compound is determined as a percentage of the antigen-induced response (minus background release) obtained in the presence of DMSO alone. These values are used to determine the degrees of inhibition of antigen-induced hexosaminidase release from the cells.

Jurkat clone E6.1 cells = test: Antigen-induced (anti-CD3 mAb) calcium flux in Jurkat clone E6.1 cells; format: cell-based; details: 20 μM; anti-CD3 mAb 4 μg/mL; Fura 2AM
From the text: Elevation of cytoplasmic calcium concentration is a common and crucial event which follows the activation of many types of cell surface receptors. Increases in intracellular calcium that occur following agonist activation of inositol lipid hydrolysis are the results of calcium release from the endoplasmic reticulum and the influx of calcium through the plasma membrane. Increases in cytosolic calcium concentration are involved in many important cellular responses in the inflammatory process including adhesion, motility, gene expression, proliferation, and degranulation. Changes in intracellular calcium centrations can affect both short and long term cellular responses. An assay method to evaluate a test compound's impact on calcium flux is provided as follows.
The resulting supernatants are discarded and each pellet is washed in 10 mL HBSS. Cell suspensions are accumulated and centrifuged for 5 minutes at 900 RPM to form a cell pellet. The resulting supernatant is discarded and the pellet is resuspended in HBSS at 1×10^7 cells/mL. The cell suspension is transferred to a 20 mm petri dish and incubated at 37° C., 5% CO2 for 20 minutes.
One volume of Fura 2AM is mixed to one volume of detergent Pluronic F127. Cells are labeled with 4 μL of probe solution to each mL of cell suspension. The petri dish is wrapped in aluminum foil to protect from light and placed on a plate shaker for 30 minutes at room temperature.
The following steps are done in the laminar flow hood with the fluorescent lights turned off. The petri dish is removed from the shaker and the labeled cell suspension is transferred to a 15 mL conical tube and washed twice with HBSS as above. The cell pellet is resuspended in 12 mL HBSS and left wrapped in foil for 30 minutes at room temperature. The labeled cell suspension is aliquoted (100 μL/well) into a Dynex 96 well white opaque tissue culture plate. […] Selected compounds were tested for dose related activity. Test samples and activator (anti—CD3 mAb at final concentration of 4 μg/mL, PharMingen) are added manually (50 μL), such that the minimum time to acquire the first data point after stimulation is approximately 30 seconds. The calcium influx response to anti-CD3 mAb is measured as an “end point” assay. The entire plate is read in 100 seconds using a kinetic of 1 second per well.
The plate is read before the addition of anti-CD3 to monitor non-specific effect of samples/drugs. Fluorescence emission is measured at 510 nm with excitation alternating between 340 and 380 every second using an excitation/emission filter pair. Data from these dual wavelengths are represented as a ratio of 2 excitations wavelengths. This ratio is independent of intracellular dye and cell concentrations, enabling real comparison between experiments.

[4] = 5 mg/kg/day for 4 days, corn oil vehicle, relative to control animals
[5] = inhibition of DNP-HSA antigen-induced hexosaminidase release
[6] = 37° C., 15 min incubation, relative to 0 minute incubation
[7] = 37° C., 30 min incubation, relative to 0 minute incubation
[8] = 1 mg/kg/day for 4 days, corn oil vehicle, relative to control animals
[9] = 0.1 mg/kg, 4 days qd, water vehicle
[10] = 0.3 mg/kg, 4 days qd, water vehicle
[11] = 1 mg/kg, 4 days qd, water vehicle

Row | Compound | % inhibition of eosinophils [1, 4] | % inhibition of lymphocytes [1, 4] | % inhibition of neutrophils [1, 4] | % remaining after 15 min ([2]; human, s9, 15 min, pH 7) | % remaining after 30 min ([2]; human, s9, 30 min, pH 7) | IC50 [3, 5] | Calcium (% inhibition at 20 μM) (Jurkat clone E6.1 cells) | % remaining after 15 min [2, 6] | % remaining after 30 min [2, 7] | other results
1 | CCC1CCC2C3C(CC[C@]12C)[C@@]1(C)CCC(N)CC1[C@@H](O)[C@@H]3O (stereo partly shown) [Compound 96] | −9% | 19% | 40% | 92 ± 19% | 94 ± 21% | – | – | – | – | –
2 | C=C1CCC2C3C(CC[C@]12C)[C@@]1(C)CCC(N)CC1[C@@H](OC)[C@@H]3OC (stereo partly shown) [Compound 79] | – | – | – | 67 ± 6% | 61 ± 14% | 18.4 µM | 9.1% | – | – | –
3 | CC1(C)CCC2=C1CCC1C2[C@@H](O)[C@H](O)C2C[C@@H](N)CC[C@]12C (stereo partly shown) [Compound 139] | – | – | – | – | – | 10.3 µM | 26.3% | 100% | 100% | –
4 | CC1(C)CCC2=C1CCC1C2C(O)C(O)C2CC(NCc3ccc(F)c(F)c3)CCC21C.Cl (stereo not shown) [Compound 141] | – | – | – | – | – | 9.4 µM | 36.3% | 100 ± 9% | 26 ± 4% | –
5 | CC(F)=C1CCC2C3C(CC[C@]12C)[C@@]1(C)CCC(N)CC1[C@@H](O)[C@@H]3O (stereo partly shown) [Compound 64] | 62% | 81% | 70% | 104 ± 4% | 88 ± 5% | – | – | – | – | –
6 | CC=C1CCC2C3C(CC[C@]12C)[C@@]1(C)CCC(N)CC1[C@@H](O)[C@@H]3O (stereo partly shown) [Compound 49] | 52% | 73% | 36% | 93 ± 6% | 85 ± 8% | 11 µM | 26.8% | – | – | –
7 | C=C1CCC2C3C(CC[C@]12C)[C@@]1(C)CC[C@@H](NC(=O)Nc2ccccc2)CC1[C@@H](O)[C@@H]3O (stereo partly shown) [Compound 137] | – | – | – | 93 ± 31% | 71 ± 17% | – | – | – | – | –
8 | COc1ccc(CNC2CCC3(C)C(C2)C(O)C(O)C2C4=C(CCC23)C(C)(C)CC4)cc1OC.Cl (stereo not shown) [Compound 142] | – | – | – | – | – | 15.9 µM | 13.8% | 80 ± 11% | 55 ± 2% | % inhibition of eosinophils [1, 8]: −131%; % inhibition of lymphocytes [1, 8]: −42%; % inhibition of neutrophils [1, 8]: −1%
9 | COC(=O)C=C1CCC2C3C(CC[C@]12C)[C@@]1(C)CCC(N)CC1[C@@H](O)[C@@H]3O (stereo partly shown) [Compound 69] | – | – | – | 73 ± 24% | 63 ± 6% | – | – | – | – | –
10 | C=C1CCC2C3C(CC[C@]12C)[C@@]1(C)CCC(N)CC1[C@@H](O)[C@@H]3O (stereo partly shown) [Compound 53] | 24% | 13% | 57% | – | – | – | −0.8% | – | – | IC50 ([3]; Rattus norvegicus, RBL-2H3, inhibition of DNP-HSA antigen-induced hexosaminidase release): 17.6 µM
11 | CCC1(C)CCC2=C1CCC1C2C(O)C(O)C2CC(NCc3ccccc3)CCC21C.Cl (stereo not shown) [Compound 146] | – | – | – | – | – | 9 µM | 41.7% | 82 ± 6% | 63 ± 9% | % inhibition of eosinophils [1, 8]: 8%; % inhibition of lymphocytes [1, 8]: −27%; % inhibition of neutrophils [1, 8]: 24%
12 | CCC1CCC2C3C(CC[C@]12C)[C@@]1(C)CCC(N)CC1[C@@H](O)[C@@H]3O (stereo partly shown) [Compound 97] | 40% | 56% | 52% | 94 ± 10% | 89 ± 12% | 9.3 µM | 43.0% | – | – | –
13 | CC(F)=C1CCC2C3C(CC[C@]12C)[C@@]1(C)CCC(N)CC1[C@@H](O)[C@@H]3O (stereo partly shown) [Compound 95] | 14% | 30% | 45% | – | – | 13.5 µM | 11.2% | – | – | –
14 | C=C1CCC2C3C(O)C(O)C4CC(NCc5cccnc5)CCC4(C)C3CCC12C.Cl.Cl (stereo not shown) [Compound 107] | – | – | – | – | – | 17.2 µM | 11.6% | – | – | % inhibition of eosinophils [1, 8]: −122%; % inhibition of lymphocytes [1, 8]: −28%; % inhibition of neutrophils [1, 8]: 23%
15 | CCC1(C)CCC2=C1CCC1C2C(O)C(O)C2CC(N)CCC21C.Cl (stereo not shown) [Compound 143] | – | – | – | – | – | 8.6 µM | 22.6% | 100% and 100 ± 3% | 100% and 99 ± 10% | % inhibition of eosinophils [1, 9]: 28%; % inhibition of lymphocytes [1, 9]: −43%; % inhibition of neutrophils [1, 9]: 57%; % inhibition of eosinophils [1, 10]: 29%; % inhibition of lymphocytes [1, 10]: −37%; % inhibition of neutrophils [1, 10]: 25%; % inhibition of eosinophils [1, 11]: 48%; % inhibition of lymphocytes [1, 11]: −22%; % inhibition of neutrophils [1, 11]: 64%
